For data set [1], the system named is doxorubicin-resistant human breast carcinoma M-109 cell line. Nature of the data set: Cytotoxicity, methylene blue (MB) staining assay. It counts as cell-based. The settings on record: M-109 doxorubicin-resistant cells. On the procedure: Cytotoxicity studies: The cytotoxicity of C6Cer-DXN-SSL against doxorubicin-resistant human breast carcinoma M-109 cell line was tested by the methylene blue (MB) staining assay [Gorodetsky, R. et al. Int. J. Cancer. 75:635-642 (1998)]. A known number of exponentially growing cells in 200 μL of medium were plated in 96-microwell, flat-bottomed plates. For each of the variants tested, 4 wells were used. Following 24 hr of incubation in culture, different concentrations of drugs or formulations were added to each well containing untreated cells.
Cells were exposed to drugs for 96 hr. […] The MB bound to the fixed cells was extracted by incubation at 37° C. with 200 μL of 0.1 N HCl for 1 h, and the net optical density of the dye in each well was determined by a plate spectrophotometer (Labsystems Multyskan Bichromatic, Finland) at 620 nm.
Statistical analysis: Median survival times and the statistical significance of differences in survival curves were calculated by means of the log-rank test using Prism Software (GraphPad, San Diego, Calif.). […] For assessment of synergy, the combination index (CI) was determined by median effect analysis [Chow T C, Talalay P. Quantitative analysis of dose-effect relationships: the combined effects of multiple drugs or enzyme inhibitors. […]

Another data set concerns C-26 colon carcinomas. Nature of the data set: In vivo antitumor efficacy, mice inoculated i.p. with C-26 colon carcinoma. On the set-up: species or system BALB/c mice. To be noted: i.v. treatment, DXN 8 mg/kg.
Data set [2] is described as follows: Doxorubicin pharmacokinetics and biodistribution in tumor-bearing mice. Format: in vivo, BALB/c mice. On the procedure: Pharmacokinetics and biodistribution studies in tumor-bearing mice: Eight to 10-week-old BALB/c female mice, obtained through the Animal Breeding House of the Hebrew University (Jerusalem, Israel), were housed at Hadassah Medical Center at a specific pathogen free (SPF) facility with food and water ad libitum. Each mouse was injected with one inoculum of tumor cells (1×10^6 murine C-26 cells) subcutaneously into the left flank. 7 days later SSL formulations containing both DXN (0.16 mg/mouse) and C6Cer, (0.25 mg/mouse), Doxil (0.16 mg/mouse) and free DXN (0.16 mg/mouse) were injected i.v. At 1, 4, 24 and 48 hr after injection, the animals were anesthetized with 4% chloral hydrate (Fluka, USA), bled by eye inoculation, and plasma was separated from blood cells by 5 min centrifugation at 5,000 rpm. Various organs (liver, heart, lungs, kidneys) and tumor were removed. Each time period in each treated group consisted of 3 mice. Samples were frozen at −80° C. until assayed. Thereafter, plasma samples were diluted in 90% isopropanol containing 10% 0.75N HCl in order to dissolve all liposome's lipids and release the DXN to the solution, and concentration of DXN was determined according to a standard calibration curve of DXN (excitation at 485±10 mu and emission at 590±10 nm) from fluorescence intensity using Synergy HT plate reader in its fluorescence mode (Bio-Tek, Vermont, USA).
Doxorubicin pharmacokinetics and biodistribution studies in tumor-bearing mice: BALB/c female mice were injected with one inoculum of tumor cells (1×10^6 C-26 cells) subcutaneously into the left flank. Seven days later, liposomal formulations containing both DXN and C6Cer [HSPC:^2kPEG-DSPE:Chol:C6Cer (76:7.5:5:11.5)-DXN]; Doxil or Free DXN were injected i.v., and bled by eye inoculation, plasma was isolated and 50 μl was taken from plasma for further analysis. DXN levels were determined after “extraction” of plasma with acidic isopropanol as described in Methods.

The record followed here is patent US20080058274A1, “Combination Therapy” (priority 2004, published 2008).

Counter-ions that a name gives are not always drawn. Like-named read-outs stand apart in the source and are kept apart here.

Description for C-26 colon carcinomas: In vivo evaluation of antitumor efficacy of Liposomal DXN: All the experimental procedures which make use of animals (mice) were done in accordance with the standards required by the Institutional Animal Care and Use Committee of the Hebrew University and Hadassah Medical Organization and approved by the Committee.
To test therapeutic efficacy, female BALB/c mice (in the weight range of 16-20 g) were injected i.p. with 1*10^6 C-26 colon carcinomas. The viability of these cells was >90% by trypan blue exclusion. Therapeutic efficacy of i.v. injected SSL (DXN-C6Cer-SSL) containing both DXN in intraliposome aqueous phase (DXN/PL ratio of 0.2) and 11.5 mole % of C6Cer in comparison to Doxil (alone) and free DXN was studied. In all 3 treatments DXN dose was 0.16 mg/mouse (8 mg/kg) and dose of C6Cer injected into mice treated with DXN-C6Cer-SSL was 0.25 mg.mouse (12.5 mg/kg). Intravenous treatment began at day 4 after tumor cell inoculation and was repeated three times at 5-days intervals. The median survival and percentage increase in life span of treated (T) over control (C) animals (Tx100/C)-100 were calculated.
Statistical analysis: Median survival times and the statistical significance of differences in survival curves were calculated by means of the log-rank test using Prism Software (GraphPad, San Diego, Calif.). Differences were considered significant at P<0.05.

For the compound `COc1cccc2c1C(=O)c1c(O)c3c(c(O)c1C2=O)C[C@@](O)(C(=O)CO)C[C@@H]3O[C@H]1C[C@H](N)[C@H](O)[C@H](C)O1` [free DXN, 8S,10S)-10-[(3-amino-2,3,6-trideoxy-a-L-lyxo-hexopyranosyl)oxy]-8-glycolyl-7,8,9,10-tetrahydro-6,8,11-trihydroxy-1-methoxy-5,12-naphthacenedione hydrochloride], the IC50 in data set [1] (M109, agent given alone, 96 hr exposure, read-out: IC50) turned out to be 2.2 µM; in data set [1] (M109, combined with liposomal C6Cer at its IC10, 96 hr, read-out: IC50 of DXN in the presence of IC10 concentration of liposomal C6Cer) it was 0.9 µM. Besides, the “survival 80 days after treatment initialization” value in the data set on C-26 colon carcinomas (FIG. 3) was 0%. Besides, the median survival in the data set with C-26 colon carcinomas (untreated 16 day) came to 35 days. The “DXN remaining in plasma” value in data set [2] (1 hr post-injection, i.v. 0.16 mg DXN/mouse, FIG. 4A) turned out to be 3%. Besides, the “DXN level in heart tissue” value in data set [2] (4 hr post-treatment, i.v., FIG. 4B) is given as 5.7%. Besides, the “DXN level in tumor tissue” value in data set [2] (24 hr post-injection (maximum), i.v., s.c. C-26 tumor, FIG. 4B) amounted to 1%. Besides, the “DXN remaining in circulation” value in data set [2] (plasma, 48 hr post-injection, i.v. 0.16 mg DXN/mouse, FIG. 4A) was “below detection”.
